Square brackets hold non-standard residues; d marks the D form. Ends that are not written are not given here. Peptide text beside a SMILES is read from it. AEEA = NCCOCCOCC(=O)O
Assays:
[1] = system: human corneal epithelial cell (HCEC); assay: HCEC chemotaxis, modified Boyden chemotaxis chamber assay; format: cell-based; conditions: for migration of HCECs vs buffer control: 120-146QH at 10^−4, 10^−6, 10^−8, 10^−10 M, 120-146QR at 10^−6, 10^−8 M, HB-EGF 50 ng/ml, rCAP37 250 ng/ml, 3 hours at 37° C; for migration compared with the whole CAP37 protein: 120-146QH at 10^−6 M and 10^−8M
Protocol: The effect of buffer control (0.1% BSA in Gey's buffer), heparin binding-epidermal growth factor (HB-EGF, 50 ng/ml), recombinant CAP37 (rCAP37, 250 ng/ml), 120-146QH (10^−12M, 10^−10 M, 10^−8 M, 10^−6M, and 10^−4M,) and 120-146QR (10^−10M, 10^−8M, 10^−6M, and 10^−4M) on HCEC chemotaxis was determined by the modified Boyden chemotaxis chamber method. HCEC chemotaxis was measured in response to HB-EGF, rCAP37, and peptides 120-146QH (SEQ ID NO:29) and 120-146QR (SEQ ID NO:28) after incubation for 3 hours at 37° C. Chemotaxis is expressed as a percent migration. The buffer control (no chemoattractant) is arbitrarily assigned the value of 100% migration. Data are expressed as means±SEM and are calculated from 6 observations for each test point. **P<0.01 by Wilcoxon signed-rank test as compared to controls.
Chemotaxis assays were performed using the modified Boyden chemotaxis chamber assay. Peptide 120-146QH was used at 10^−4 M, 10^−6 M, 10^−8 M, 10^−10 M, and 10^−12 M, and peptide 120-146QR was used at 10^−4 M, 10^−6M, 10^−8M, and 10^−10 M.

[2] = system: Acinetobacter baumannii ATCC® BAA-747™; assay: In vitro bactericidal assay (CFU remaining, log reduction); format: cell-based; conditions: 60 minutes, peptides up to 25 μM, gentamicin 4 μg/ml
Protocol: (§1) The three peptide compounds BCC01-5RMP (SEQ ID NO:21), BCC02-5RMP (SEQ ID NO:22), and BCC03-5RMP (SEQ ID NO:23) were assayed for in vitro bactericidal activity against Pseudomonas aeruginosa, Escherichia coli, Salmonella typhimurium, and Acinetobacter baumannii. The starting inoculum for all experiments was 1×10^6 colony forming units (CFU)/ml. The CFU remaining at the end of 60 to 180 minute incubation was determined, and the data plotted as a log reduction in CFU/ml.
(§2) For FIGS. 10-13, in vitro bactericidal assays were performed using a starting inoculum of 1×10^6 CFU/ml of the bacterial suspension. The CFU remaining at the end of the 60-180 minute incubation was determined, and the data was plotted as log reduction in CFU/ml.
(§3) In particular, each of the test peptides (CAP37 peptides 120-146WR, 120-146WH, and 95-122 (SEQ ID NOs: 30, 31, and 26, respectively)) was used at 25, 12.5, 6.25, and 3.12 μM. Gentamicin was used at 4 μg/ml. 1×10^6/ml Acinetobacter baumannii ATCC® BAA-747″ or Pseudomonas aeruginosa ATCC® 27853™ (American Type Culture Collection, Manassas, Va.) were incubated with the peptides, negative buffer control (tryptone saline), and positive control gentamicin at pH 5.5 or 7.2. A 60 minute incubation was used for Acinetobacter baumannii ATCC® BAA747™, while a 180 minute incubation was used for Pseudomonas aeruginosa ATCC® 27853™. 50 μl aliquots were plated out on agar plates and incubated overnight. Colony forming units were counted after overnight incubation and CFU/ml calculated.

[3] = system: Pseudomonas aeruginosa ATCC® 27853™; format: cell-based; conditions: gentamicin 4 μg/ml
Protocol: as §1, with “The starting inoculum for all experiments was 1×10^6 colony forming units (CFU)/ml.” left out
Tables 4-6 show the results of various peptides and peptide compounds against P. aeruginosa and E. coli strains. Tables 4 and 5 show the results of an investigation of the effects of peptide or peptide compounds BCC03-5RMP (SEQ ID NO:23), BCC03-MP (SEQ ID NO:24) and BCC03-5R (SEQ ID NO:20) against P. aeruginosa ATCC® strain 27853™ and E. coli ATCC® strain 25922™ (American Type Culture Collection, Manassas, Va.). […] Table 6 compares the activity of several other compounds, including the “5R” versions of BCC01, i.e., SEQ ID NO:18 (which comprises SEQ ID NO:1 with five additional arginines), the “5R” version of BCC02 (i.e., SEQ ID NO:19, which comprises SEQ ID NO:2 with five additional arginines), and BCC03-5RMP (SEQ ID NO:23), and BCC03-MP (SEQ ID NO:24, i.e., without the five additional R residues). The data generally indicate the superiority of BCC03-5RMP (SEQ ID NO:23) against E. coli, and the superiority of the 5R or 5RMP versions of the peptide over the “AEEA only” peptide against P. aeruginosa.
as §2, §3
For FIG. 14, 1×10^6/ml Pseudomonas aeruginosa ATCC® 27853™ were incubated with each of the test peptides (CAP37 peptides 120-146WR, 120-146WH, 120-146QR, 120-146QH, 120-146QR-5RMP, and 120-146QH-5RMP (SEQ ID NOs: 30, 31, 28, 29, 32, and 33, respectively)) at 150, 75, and 37.5 μg/ml, or negative buffer control (tryptone saline), for 180 minutes at pH 5.5. 50 μl aliquots were plated out on agar plates and incubated overnight. Colony forming units were counted after overnight incubation and CFU/ml calculated.

in vivo = conditions: rat, iv, 20 mg/kg
Protocol: The purpose of this example was to assess the pharmacokinetics, distribution, and excretion of ^14C-BCC03-5RMP (SEQ ID NO:23) following a single intravenous administration to male rats. Pharmacokinetic, excretion, and distribution profiles of ^14C-BCC03-5RMP-derived radioactivity were examined in male Sprague Dawley rats following a single intravenous administration of ^14C-BCC03-5RMP (20 mg/kg; 125 μCi/kg). ^14C-BCC03-5RMP was formulated in 5% (v:v) dextrose in water, pH 5.5 and was administered at a dose volume of 5 mL/kg. For assessment of pharmacokinetics of total radioactivity (Group 1), blood was collected at 0.25, 0.5, 1, 2, 4, 8, 24, 48, and 72 hours postdose. For assessment of excretion profiles, urine was collected from 0-8 and 8-24 hours postdose, and at 24-hour intervals through 168 hours postdose. Feces was collected at 24-hour intervals through 168 hours postdose. For assessment of distribution profiles, one animal/time point was sacrificed at 0.25, 1, 4, 24, and 72 hours postdose, and the carcasses were prepared for quantitative whole-body autoradiography (QWBA). Concentrations of radioactivity in whole blood, plasma, urine, feces (after oxidation), cage rinse, cage wash, and carcass were determined by liquid scintillation counting (LSC). Tissue concentrations were calculated by interpolation from each standard curve using MCID™ analysis software (InterFocus Imaging Ltd Corp., UK). Pharmacokinetic parameters for total radioactivity in blood and plasma were calculated using WinNonlin Professional Edition (version 5.2, Pharsight Corporation, St. Louis, Mo.).

## GTRCQVAGWGSQRSGGRLSRFPRFVNV [Peptide 120-146QR]
[1]
  migration of HCECs vs buffer control: significantly increase migration
  migration compared with the whole CAP37 protein: less than the migration obtained with the whole protein

## GTRCQVAGWGSQHSGGRLSRFPRFVNV [Peptide 120-146QH]
[1]
  migration of HCECs vs buffer control: significantly increase migration
  migration compared with the whole CAP37 protein: comparable to the migration obtained with the whole CAP37 protein

## gentamicin [reference compound]
[2]; pH 5.5
  bactericidal activity against Acinetobacter baumannii: unable to kill the bacteria
[2]; pH 7.2
  bactericidal activity against Acinetobacter baumannii: active against the bacteria
[3]; 120-146WR at 25 μM
  activity against P. aeruginosa: highly active
[3]; pH 5.5, 180 minutes, highest concentrations of peptides (25 μM)
  reduction of CFU/ml: 2 logs

## CC[C@H](C)[C@H](NC(=O)[C@H](CC(C)C)NC(=O)[C@H](C)NC(=O)CNC(=O)CNC(=O)[C@H](CS)NC(=O)[C@H](Cc1ccccc1)NC(=O)[C@H](Cc1c[nH]cn1)NC(=O)[C@H](CCCNC(=N)N)NC(=O)CNC(=O)[C@H](CCC(N)=O)NC(=O)[C@H](CC(N)=O)NC(=O)[C@H](CCCNC(=N)N)NC(=O)[C@H](CCCNC(=N)N)NC(=O)[C@H](CCCNC(=N)N)NC(=O)[C@H](CCCNC(=N)N)NC(=O)COCCOCCNC(=O)COCCOCCN)C(=O)N[C@@H](Cc1c[nH]cn1)C(=O)N[C@@H](C)C(=O)N[C@@H](CCCNC(=N)N)C(=O)N[C@@H](Cc1ccccc1)C(=O)N[C@H](C(=O)N[C@@H](CCSC)C(=O)N[C@H](C(=O)N[C@@H](C)C(=O)N[C@@H](C)C(=O)N[C@@H](CO)C(=O)N[C@@H](CO)C(=O)N[C@@H](Cc1ccccc1)C(=O)N[C@@H](CCC(N)=O)C(=O)N[C@@H](CCCNC(=N)N)C(=O)O)[C@@H](C)O)C(C)C [^14C-BCC03-5RMP] (H-[AEEA][AEEA]RRRRNQGRHFCGGALIHARFVMTAASSFQR-OH; N-terminus and C-terminus assumed)
In vivo; male, Sprague Dawley, total radioactivity
  blood plasma ratio: 0.689 to 3.11
In vivo
  C0, Radio-equivalents in blood: 38500 ± 2160 ng eq/g
  C0, Radio-equivalents in plasma: 51800 ± 4160 ng eq/g
  Clearance of radioactivity, plasma relative to blood: approximately 2 fold
  blood:brain barrier passage of radioactivity: crossed the blood:brain barrier
  blood:testis barrier passage of radioactivity: crossed the blood:testis barrier
  exposure (AUC0-∞), blood relative to plasma: approximately 2 fold
  tissue:plasma concentration ratios, majority of tissues: greater than one
  tissue:plasma concentration ratios, renal, adrenal, pancreatic, and pituitary tissues: up to 103
  volume of distribution of total radioactivity, blood relative to plasma: approximately 1.6 fold
